# What was measured:
# [1] = tested on: LDLR protein levels in HepG2 cells; assay: Western blot analysis of relative LDLR protein levels in HepG2 cells after treatment; type: cell-based, human; conditions: HepG2 cells incubated overnight with compound, 0.2 μM to 20 μM
# Experimental: Cell culture, treatments and cell viability assay. For phenotypic screening of PCSK9 modulators and/or LDLR small molecule inducers, human HepG2 cells were incubated overnight in conditioned media containing chemical compounds resuspended in DMSO at concentration ranging from 0.2 μM to 20 μM. […] Following incubation, media have been replaced and cells incubated for 4 h with 100 μL of phenol red-free DMEM containing 0.5 mg/mL of MTT (3-[4,5-dimethylthiazol-2-yl]-2,5-diphenyltetrazolium bromide; thiazolyl blue; catalog no. M5655, Sigma-Aldrich), following manufacturer's instructions.
# Western Blot Analysis, Immunocytochemistry and LDLR Activity Assay. Following incubation, cells were washed three times in phosphate-buffered saline (PBS) and lysed in radioimmune precipitation assay buffer (50 mM Tris/HCl, pH 8.0, 1% (v/v) Nonidet P-40, 0.5% sodium deoxycholate, 150 mM NaCl, and 0.1% (v/v) SDS) supplemented with a complete protease inhibitor mixture (catalog no. 11 697 498 001, Roche Applied Science). Proteins were separated by SDS polyacrylamide gel electrophoresis, blotted on nitrocellulose membranes (Bio-Rad), blocked incubated with indicated antibodies as described (Poirier S, et al., Cell Rep, 2015). For immunocytochemistry analysis, cells were permeabilized or not with 0.1% Triton X-100/PBS for 10 min, and incubated with 150 mM glycine, blocked and incubated with indicated primary and secondary antibodies. Immunofluorescence analyses were performed with an Olympus FluoView FV10i confocal microscope (Poirier et al., Cell Rep. 2015; 13(10):2064-2071). For LDLR activity assay, HepG2 cells were incubated overnight without or with a given compound in the presence of 5 μg/ml fluorescent labelled DiI-LDL (Alfa Aesar, Cat. #J65330) and co-stained for LDLR if applicable, as described (Poirier et al., J Biol Chem. 2009; 284(42):28856-28864). Immunofluorescence analyses were performed with an Olympus FluoView FV10i confocal microscope.
# Biotinylated PCSK9 = Biotinylated PCSK9 (Homo sapiens (Human), UniProt Q8NBP7); assay: Binding affinity of SHIM compounds to PCSK9 by surface plasmon resonance spectroscopy (Biacore T200); conditions: SPR, range tested 0.5-10 uM, 1:1 Langmuir model, NB = no binding detected in the tested range; for Kd: read-out: KD - equilibrium dissociation constant; for kon: read-out: ka - association rate constant; for koff: read-out: kd - dissociation rate constant
# Experimental: Studies of SHIM compounds—PCSK9 interactions. […] Biotinylated PCSK9 (ACRO Biosystems) at 1 μg/mL has been captured on a chip on which streptavidin has been immobilized with amine-directed chemistry according to the manufacturer's instructions (6000 RU) to a density of 6000 RU in PBS-P ([…], 0.005% Tween 20, pH7.4) buffer with 1% DMSO. SHIMs at 10, 3.3, 1.1, 0.33 and 0.11 uM were injected at 30 uL/min. […] Double reference method of analysis was used with the reference channel containing a reference biotinylated protein captured at 6000 RU.
# [2] = tested on: hypercholesterolemic C57BL/6 Pcsk9 KO mice; assay: Efficacy and safety in hypercholesterolemic C57BL/6 Pcsk9 KO mice on Western diet, oral gavage; type: in vivo; conditions: 40 mg/kg/day oral gavage for 10 days
# Text: Animal studies. All animal studies were approved by the Montreal Heart Institute (MHI) Animal Care and Ethical committee. For in vivo proof-of-concept animal studies, wild-type C57BL/6 or Pcsk9 knockout male mice were fed on Western diet containing 48.5% w/w carbohydrate, 21.2% w/w fat, 17.3% w/w protein and 0.2% w/w cholesterol (catalog no. TD.88137, Envigo) for 14 days. Chemical compounds were mixed in DMSO/propylene glycol/water; 1:7:2 (v/v) and administered by oral gavage at 0 (vehicle) or 40 mg/kg/day for 10 days in mice on Western diet. Plasma lipoprotein cholesterol profiles were obtained from 100 μL of pooled plasma injected on a Superose 6 10/300 GL (catalog no. 17-5172-01, GE Life Sciences) and eluted with PBS at a flow rate of 0.1 mL per min at 4° C. mounted on a AKTA explorer system (GE Healthcare). Serum aspartate aminotransferase (AST), alanine transaminase (ALT), insulin, glucose and complete hematology tests were measured by the Montreal Heart Institute biochemical clinical chemistry platform according to manufacturer's recommendations.
# Chain of Biotinylated PCSK9 (Q8NBP7 153-692): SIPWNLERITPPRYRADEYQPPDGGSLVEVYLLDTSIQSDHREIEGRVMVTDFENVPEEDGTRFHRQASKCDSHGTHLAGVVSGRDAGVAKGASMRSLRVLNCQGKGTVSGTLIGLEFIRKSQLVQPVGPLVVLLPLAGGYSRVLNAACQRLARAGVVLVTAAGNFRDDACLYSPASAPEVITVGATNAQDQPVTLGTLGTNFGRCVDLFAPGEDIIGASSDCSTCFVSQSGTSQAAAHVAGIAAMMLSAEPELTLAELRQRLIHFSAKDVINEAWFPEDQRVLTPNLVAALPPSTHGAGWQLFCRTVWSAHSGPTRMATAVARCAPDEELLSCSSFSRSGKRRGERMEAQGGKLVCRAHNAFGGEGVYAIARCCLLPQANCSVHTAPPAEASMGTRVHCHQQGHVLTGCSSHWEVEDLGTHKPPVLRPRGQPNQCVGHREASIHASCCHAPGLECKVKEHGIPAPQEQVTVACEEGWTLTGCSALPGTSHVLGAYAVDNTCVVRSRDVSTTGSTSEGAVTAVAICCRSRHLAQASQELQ
SMILES,LDLR Fold (relative LDLR protein levels) [1] [Fold],other results
"O=C(c1csc(-c2cccs2)n1)N1CCc2c([nH]c3ccccc23)C1c1ccccn1 (stereo not drawn) [Compound 26, 1-(2-pyridinyl)-2-{[2-(2-thienyl)-1,3-thiazol-4-yl]carbonyl}-2,3,4,9-tetrahydro-1H-beta-carboline]",1.9 ± 0.5,Kd (Biotinylated PCSK9): 11 µM; kon (Biotinylated PCSK9): 104000 M⁻¹ s⁻¹; koff (Biotinylated PCSK9): 1.14 s⁻¹; ALT [2]: 24 U/L; AST [2]: 67 U/L; Glucose [2]: 16.3 mmol/L; ΔBody Weight (D 10 − D 0) [2]: 99%; HDL-C ([2]; Western diet): 3.00 mmol/L; LDL-C (measured) ([2]; Western diet): 0.23 mmol/L; TC ([2]; Western diet): 3.03 mmol/L; TG ([2]; Western diet): 0.90 mmol/L; nonHDL-C ([2]; Western diet): 0.04 mmol/L; LDL-C (pooled plasma) (FPLC AUC) (Fold Change %) ([2]; pooled plasma FPLC): −61%
"CC1(c2ccc3ccccc3c2)NC(=O)N(CC(=O)N2CCC(C(=O)Nc3ccccc3)CC2)C1=O (stereo not shown) [Compound 14, 1-[2-[4-methyl-4-(2-naphthyl)-2,5-dioxo-imidazolidin-1-yl]acetyl]-N-phenyl-piperidine-4-carboxamide]",2.0 ± 0.7,Kd (Biotinylated PCSK9): 13.8 µM; kon (Biotinylated PCSK9): 14500 M⁻¹ s⁻¹; koff (Biotinylated PCSK9): 0.19 s⁻¹
"C[C@@]1(c2ccc3ccccc3c2)NC(=O)N(CC(=O)N2CCC(C(=O)N3CCCCCC3)CC2)C1=O (stereo in doubt) [Compound 16, 3-{2-[4-(azepane-1-carbonyl)piperidin-1-yl]-2-oxoethyl}-5-methyl-5-(naphthalen-2-yl)imidazolidine-2,4-dione]",2.1 ± 1.2,Kd (Biotinylated PCSK9): 3.88 µM; kon (Biotinylated PCSK9): 22800 M⁻¹ s⁻¹; koff (Biotinylated PCSK9): 0.09 s⁻¹
"Cc1nn(CC(=O)N2CCc3c([nH]c4ccccc34)[C@H]2c2ccccn2)c(=O)c2ccccc12 [Compound 2, 4-methyl-2-{2-oxo-2-[1-(2-pyridinyl)-1,3,4,9-tetrahydro-2H-beta-carbolin-2-yl]ethyl}-1(2H)-phthalazinone]",1.0 ± 0.5,
"O=C(CN1CCN(c2nnc(-c3ccccc3)c3ccccc23)CC1)N1CCCC1 [Compound 35, 2-[4-(4-phenylphthalazin-1-yl)piperazin-1-yl]-1-(pyrrolidin-1-yl)ethan-1-one]",0.9,
"O=C(c1cn(CCN2CCCCC2)nn1)N1CCC2(C=Cc3ccccc32)CC1 [Compound 9, 1′-{1-[2-(piperidin-1-yl)ethyl]-1H-1,2,3-triazole-4-carbonyl}spiro[indene-1,4′-piperidine]]",0.4 ± 0.1,
"Cc1ccc(-c2nnc(N3CCN(C(=O)c4ccco4)CC3)c3ccccc23)cc1 [Compound 39, 1-[4-(furan-2-carbonyl)piperazin-1-yl]-4-(4-methylphenyl)phthalazine]",0.9,
"Cc1cccc(C2c3[nH]c4ccccc4c3CCN2C(=O)CCCN2CCCCC2=O)n1 (stereo not shown) [Compound 28, 1-{4-[1-(6-methylpyridin-2-yl)-1H,2H,3H,4H,9H-pyrido[3,4-b]indol-2-yl]-4-oxobutyl}piperidin-2-one]",1.0,
"CC1(c2ccc3ccccc3c2)NC(=O)N(CC(=O)N2CCCCC2c2nc3ccccc3s2)C1=O (stereo not shown) [Compound 11, 3-{2-[2-(1,3-benzothiazol-2-yl)piperidin-1-yl]-2-oxoethyl}-5-methyl-5-(naphthalen-2-yl)imidazolidine-2,4-dione]",1.5 ± 0.4,
"CC1CCN(CC(=O)N2CCN(c3nnc(-c4ccccc4)c4ccccc34)CC2)CC1 [Compound 40, 2-(4-methylpiperidin-1-yl)-1-[4-(4-phenylphthalazin-1-yl)piperazin-1-yl]ethan-1-one]",0.9,
"Cc1cccc([C@H]2c3[nH]c4ccccc4c3CCN2C(=O)CCc2ccccc2)n1 (stereo in doubt) [Compound 27, 1-[1-(6-methylpyridin-2-yl)-1H,2H,3H,4H,9H-pyrido[3,4-b]indol-2-yl]-3-phenylpropan-1-one]",1.0,
"Cc1cc(C(=O)N2CCC[C@H](c3ccc(C(=O)O)cc3)C2)c2ccc(F)cc2n1 (stereo in doubt) [Compound 49, 4-[1-(7-fluoro-2-methylquinoline-4-carbonyl)piperidin-3-yl]benzoic acid]",1.6,
"O=C(Cn1[nH]c(=O)c2ccccc2c1=O)Nc1ccc(N2C(=O)c3cccc4cccc(c34)C2=O)cc1 [Compound 4, 2-(1,4-dioxo-1,2,3,4-tetrahydrophthalazin-2-yl)-N-(4-{2,4-dioxo-3-azatricyclo[7.3.1.0^{5,13}]trideca-1(13),5,7,9,11-pentaen-3-yl}phenyl)acetamide]",1.6 ± 0.2,
"CCOc1cccc([C@@H]2CC(c3ccc(C)cc3)=NC3(CCN(C(C)=O)CC3)N2)c1O (stereo in doubt) [Compound 3, 1-[4-(3-ethoxy-2-hydroxyphenyl)-2-(4-methylphenyl)-1,5,9-triazaspiro[5.5]undec-1-en-9-yl]ethan-1-one]",1.8 ± 0.6,
"O=C(CN1CCOCC1)N1CCN(c2nnc(-c3ccccc3)c3ccccc23)CC1 [Compound 43, 2-(morpholin-4-yl)-1-[4-(4-phenylphthalazin-1-yl)piperazin-1-yl]ethan-1-one]",0.9,
"CC1=NC2=NC(N3CCC(Cc4ccccc4)CC3)=N[C@H](c3ccccc3)N2C(O)=C1 (stereo in doubt) [Compound 30, 2-(4-benzylpiperidin-1-yl)-8-methyl-4-phenyl-4H-pyrimido[1,2-a][1,3,5]triazin-6-ol]",0.6,
"O=C([C@H]1CCCO1)N1CCN(c2nnc(-c3ccccc3)c3ccccc23)CC1 (stereo in doubt) [Compound 42, 1-[4-(oxolane-2-carbonyl)piperazin-1-yl]-4-phenylphthalazine]",0.6,
"Cc1ccc(-c2nnc(N3CCN(C(=O)Cn4c(=O)n(C)c5ccccc54)CC3)c3ccccc23)cc1 [Compound 37, 1-methyl-3-(2-{4-[4-(4-methylphenyl)phthalazin-1-yl]piperazin-1-yl}-2-oxoethyl)-2,3-dihydro-1H-1,3-benzodiazol-2-one]",1.0,
"Cc1cccc([C@H]2c3[nH]c4ccccc4c3CCN2C(=O)C(=O)CCc2ccccc2)n1 (stereo in doubt) [Compound 24, 1-[1-(6-methylpyridin-2-yl)-1H,2H,3H,4H,9H-pyrido[3,4-b]indol-2-yl]-4-phenylbutane-1,2-dione]",1.6,
"CC1(c2ccc3ccccc3c2)NC(=O)N(CC(=O)N2CCC(c3nc4ccccc4s3)CC2)C1=O (stereo not shown) [Compound 13, 3-{2-[4-(1,3-benzothiazol-2-yl)piperidin-1-yl]-2-oxoethyl}-5-methyl-5-(naphthalen-2-yl)imidazolidine-2,4-dione]",1.5 ± 0.7,
"CC(C)(O)C#Cc1cccc(C(=O)N2CCc3c([nH]c4ccccc34)[C@H]2c2ccccn2)c1 (stereo in doubt) [Compound 21, 2-methyl-4-{3-[1-(pyridin-2-yl)-1H,2H,3H,4H,9H-pyrido[3,4-b]indole-2-carbonyl]phenyl}but-3-yn-2-ol]",1.0,

# — patent US12419888B2, “Methods of treating elevated plasma cholesterol” (INSTITUT DE CARDIOLOGIE DE MONTREAL, priority 2020, dated 2025)
